# Test results from patent EP0206322B1, “N-(2-carboxy)-ethyl-1,8-naphthalene imide and its salts for the treatment of diabetic retinopathies and neuropathies” (I.P.A. INTERNATIONAL PHARMACEUTICAL ASSOCIATED S.r.l., priority 1985, dated 1986).
# Read-outs that look alike come from different tables or passages of the source.
# Legend:
# [1] = test system: platelets of rabbit blood; test: In vitro platelet antiaggregant activity, ADP-induced aggregation; format: cell-based
# Protocol: (§1) The platelet antiaggregant activity of IPA 955 has been determined in comparison with a known antiaggregant activity, Ticlopidine, on the platelets of rabbit blood added with 3.6% sodium citrate in an amount of 10%. The blood was centrifuged for 15' at 1200 rpm and the surnatant was recovered for its platelet content. The residue has been further centrifuged with the aim of obtaining a "poor" plasma (3000 - 3500 rpm). The plasma platelets obtained after the first centrifugation were suitably diluted with the poor plasma, counted and the rich plasma (first centrifugation) was diluted according to the platelet count so as to obtain a final concentration of platelets of 25.10⁴ ÷ 30.10⁴/mm³.
# (§2) The aggregation was induced by the addition of ADP and collagene at the specified concentrations.
# [2] = biological target: T1, aldose-reductase (Rattus norvegicus, UniProt P07943); test: Aldose-reductase inhibitory activity (rat lens homogenate supernatant, method of Varma and Kinoshita); format: biochemical, rats
# T1 construct: The surnatant, after centrifugation at 3000 x g for 15 minutes, has been used; from tissue; host or cells: crystalline lenses of adult male rats (homogenate supernatant)
# Protocol: Crystallin lenses of adult male rats have been homogenized in 0.1 M phosphate buffer pH 6.2. The surnatant, after centrifugation at 3000 x g for 15 minutes, has been used. The surnatant contained 13 mg/ml of proteins. Quercitrin (Fluka, Buchs) 1 mM dissolved in DMSO: H2O (1:10) has been used. The aldose-reductase activity has been tested by the method described by […] J.H. Kinoshita (Biochem. Pharmacol. 25, 2505, 1976) using 1 ml of final volume containing NAPDH (20 μl of a 10 mM solution), DL glyceraldheide 1.5 x 10^-3 M final, […] (25 μl of a 1 M solution) and 150 μl of a surnatant. The blank contained the same substances, except the surnatant.
# [3] = test system: platelets of rabbit blood; test: In vitro platelet antiaggregant activity, collagen-induced aggregation; format: cell-based; settings: for inhibition at 625 µM / inhibition at 1250 µM: Oryctolagus cuniculus, Platelet, read-out: Percent inhibition; for inhibition at 625 µM: compound 0.625 mM; for inhibition at 1250 µM: compound 1.25 mM
# Protocol: as §1, §2
# [4] = Acute toxicity in the mouse (LD50 by Litchfield and Wilcoxon method); format: in vivo; settings: oral and intravenous administration, at the tested doses
# Protocol: The acute toxicity of IPA 955 has been studied in the mouse after oral and intravenous administration. The LD₅₀ values were calculated according to the Litchfield and Wilcoxon method (J. Pharm. Exp. Therap. 1949, 96, 99).
# [5] = ADP conc. 5.0 μM, compound 1.25 mM
# [6] = ADP conc. 6.25 μM, compound 0.625 mM
# [7] = ADP conc. 6.25 μM, compound 1.25 mM
# [8] = ADP conc. 8.3 μM, compound 1.25 mM
# [9] = ADP conc. 12.5 μM, compound 0.625 mM
# [10] = ADP conc. 12.5 μM, compound 1.25 mM
Structure (SMILES),"Percent inhibition [1, 5] [%]","Percent inhibition [1, 6] [%]","Percent inhibition [1, 7] [%]","Percent inhibition [1, 8] [%]","Percent inhibition [1, 9] [%]","Percent inhibition [1, 10] [%]","Percent inhibition ([1]; ADP-induced aggregation, summary over the tables)",activity relative to quercitrin (times higher) ([2]; ratio of Ki values against quercitrin),"Ki ([2]; supernatant of rat lens homogenate, DL glyceraldheide 1.5 x 10⁻³ M, NADPH, read-out: Ki) [µM]",inhibition at 625 µM ([3]; collagene 25 μg/ml) [%],inhibition at 1250 µM ([3]; collagene 25 μg/ml) [%],inhibition at 1250 µM ([3]; collagene 50 μg/ml) [%],"platelet antiaggregation activity (percent inhibition) ([3]; collagen induced aggregation, summary over the tables) [%]",acute toxicity [4],Ki [2] [µM]
"O=C(O)CCN1C(=O)c2cccc3cccc(c23)C1=O [IPA 955, N-(2-carboxy)-ethyl-1,8-naphthaleneimide]",14.6,8.4,25.66,16.3,23.17,16.85,about 20%,about 6 times,1.04,41,48.8,38.7,40 to 50,practically devoid of toxicity,–
"Clc1ccccc1CN1CCc2sccc2C1 [TICLOPIDINE, Ticlopidine, reference compound]",24.4,9.7,20.5,19.75,15.66,20.02,–,–,–,45.3,66.5,59.6,–,–,–
"C[C@@H]1O[C@@H](Oc2c(-c3ccc(O)c(O)c3)oc3cc(O)cc(O)c3c2=O)[C@H](O)[C@H](O)[C@H]1O [quercitrin, reference compound]",–,–,–,–,–,–,–,–,–,–,–,–,–,–,6
